System: Kochia (Bassia scoparia)
Test: Greenhouse post emergence treatment, herbicidal activity by visual control on a 0 to 100 scale
Type: in vivo
Details: scale 0 to 100, mean of three replications
Source text: Synergism can be described as an interaction where the combined effect of two or more compounds is greater than the sum of the individual effects of each of the compounds. The presence of a synergistic effect in terms of percent control, between two mixing partners (X and Y) can be calculated using the Colby equation (Colby, S. R., 1967, Calculating Synergistic and Antagonistic Responses in Herbicide Combinations, Weeds, 15, 21-22):
When the observed combined control effect is greater than the expected (calculated) combined control effect (E), then the combined effect is synergistic.
Weed included Kochia (Bassia scoparia). However, the herbicidal effect afforded by the compounds, mixtures or compositions is not limited to these species. The analysis of synergism or antagonism between the mixtures or compositions was determined using Colby's equation. • Test Method: […]
Pots with 0.3 L of volume were filled with soil (SunGroco Horticulture, Agawam, MA 01001) to grow one plant per pot in the greenhouse until the desired developmental stage.
Environmental conditions inside the greenhouse were setup for 25° C., 75% relative humidity, and 12 h light day-1 with natural sunlight or 500 μmol m−1 s−1 PAR for cloudy days. […]
The test period extended to 2 to 21 days after treatment. During this time, the plants were tended, and their response to the individual treatments was evaluated. […]

SMILES | Herbicidal activity against Kochia (21 DAT), Found (Glufosinate 420 g ai/ha alone) | Herbicidal activity against Kochia (21 DAT), Found (Flumioxazin 2.5 g ai/ha alone)
CP(=O)(O)CCC(N)C(=O)O (racemic) [Glufosinate, (2RS)-2-amino-4-[hydroxy(methyl)phosphinoyl]butyric acid] | 25 | –
C#CCN1C(=O)COc2cc(F)c(N3C(=O)C4=C(CCCC4)C3=O)cc21 [Flumioxazin, flumioxazin] | – | 4
